This note sets out measurements from patent publication US20100298375A1, “MEDICAMENT COMPRISING A CARBOSTYRIL DERIVATIVE AND DONEPEZIL FOR TREATING ALZHEIMER'S DISEASE” (priority 2007, published 2010).

Where a name gives a salt, the structure may show the parent alone.

The subject of this experiment is women suffering from Alzheimer's disease. Put plainly: mini-mental state examination (MMSE) in patients with Alzheimer's disease. The experiment is classed as in vivo. How it is done:
To two women suffering from Alzheimer's disease (one was […] and the other was […]), donepezil hydrochloride (Aricept®) had been administered in a dose of 5 mg/day for 12 months and 9 months, respectively. […] At the beginning time of the experiment (0 month), the administration of cilostazol in a dose of 100 mg/day started as the combination with donepezil hydrochloride.

For `COc1cc2c(cc1OC)C(=O)C(CC1CCN(Cc3ccccc3)CC1)C2` (stereo not drawn) [donepezil hydrochloride], the “MMSE Score” value reads like this: (Patient 1, at start of cilostazol, donepezil hydrochloride 5 mg/day alone until then) 13; (Patient 1, −3 Ms, donepezil hydrochloride 5 mg/day alone) 16; (Patient 1, −6 Ms, donepezil hydrochloride 5 mg/day alone) 17; (Patient 1, −9 Ms, donepezil hydrochloride 5 mg/day alone) 17; (Patient 2, at start of cilostazol, donepezil hydrochloride 5 mg/day alone until then) 6; (Patient 2, −3 Ms, donepezil hydrochloride 5 mg/day alone) 10. In addition, the “MMSE Score” value (Patient 2, −6 Ms, donepezil hydrochloride 5 mg/day alone) came out at 12; the “MMSE Score” value (Patient 2, −9 Ms, donepezil hydrochloride 5 mg/day alone) is recorded as 13; the “MMSE Score” value (Patient 2, −12 Ms, donepezil hydrochloride 5 mg/day alone) is 16.
